Assay results published in patent US12357711B2, “PSMA binding dual mode radiotracer and therapeutic” (Technische Universität München, priority 2019, dated 2025).
“And” between values parts separate entries of the source, which are not always exact repeats. Identical values can stand only once. Like-named read-outs stand apart in the source and are kept apart here. Values belong to the compound of their own block, whether it stands above or below them.

Experiments:
[1] = tested on: LNCaP tumor-bearing SCID mice; experiment: Biodistribution at 1 h p.i.; assay type: in vivo; settings: for Biodistribution tumor: LNCaP tumor
Method: FIG. 10: Biodistribution (in % ID/g) of ^18E-labeled rhPSMA tracers at 1 h p.i in LNCaP tumor-bearing SCID mice. Data are expressed as mean±SD (n=4 for rhPSMA7.1, n=5 for 7.2, n=4 for 7.3, n=5 for 7.4 and n=3 for 7-rac).

[2] = tested on: LNCaP tumor-bearing SCID mice; experiment: Biodistribution at 1 h p.i. with competition (co-injected PMPA); assay type: in vivo; settings: co-injected with PMPA (8 mg/kg); for Biodistribution tumor: LNCaP tumor
Method: FIG. 11: Biodistribution [% ID/g] of ^18F-rhPSMAs co-injected with PMPA (8 mg/kg) at 1 h p.i in LNCaP tumor-bearing SCID mice. Data are expressed as mean±SD (n=3).

[3] = tested on: PSMA-positive LNCaP cells; experiment: Internalization in LNCaP cells, normalized to ([125I]I-BA)KuE; assay type: cell-based; settings: for individual internalization rates / internalization rate Mean: LNCaP cells, 1 hour, 37° C.; for individual internalization rates: c=0.5 nM, single measurements
Method: Data is corrected for non-specific binding ([…]) and expressed as mean±SD (n=3).
Subsequent to the removal of the culture medium, the cells were washed once with 500 μL DMEM-F12 (5% BSA) and left to equilibrate for at least 15 min at 37° C. in 200 μL DMEM-F12 (5% BSA). Each well was treated with either 25 μL of either DMEM-F12 (5% BSA) or a 100 μM PMPA solution for blockade. Next, 25 μL of the ^68Ga/^18F-labeled PSMA inhibitor (5.0 nM) was added and the cells incubated at 37° C. for 60 min. The experiment was terminated by placing the 24-well plate on ice for 3 min and consecutive removal of the medium. Each well was rinsed with 250 μL HBSS and the fractions from these first two steps combined, representing the amount of free radioligand. Removal of surface bound activity was accomplished by incubation of the cells with 250 μL of ice-cold PMPA (10 μM in PBS) solution for 5 min and rinsed again with another 250 μL of ice-cold PBS. The internalized activity was determined by incubation of the cells in 250 μL 1 M NaOH and the combination with the fraction of a subsequent wash step with 250 μL 1.0 M NaOH. Each experiment (control and blockade) was performed in triplicate. Free, surface bound and internalized activity was quantified in a γ-counter. […] Data were corrected for non-specific internalization and normalized to the specific-internalization observed for the radioiodinated reference compound.

[4] = target: T1, human serum albumin (Homo sapiens, UniProt P02768); experiment: HSA binding on Chiralpak HSA column; assay type: in vitro ADME; settings: for HSA Binding: Chiralpak HSA column (50 × 3 mm, 5 μm); for Log K HSA: reference substances for calibration of the HSA-column
T1 construct: purchased H13H-2433
Method: The mobile phase (A: NH4OAc, 50 mM in water, pH 7 and B: isopropanol) was freshly prepared for each experiment and only used for one day. The column was kept at room temperature and each run was stopped after detection of the signal to reduce the acquisition time. All substances were dissolved in a 0.5 mg/ml concentration in 50% 2-propanol and 50% 50 mM pH 6.9 ammonium acetate buffer. […] All nine reference substances were injected consecutively to establish a non-linear regression with Origin Pro 2016G.

[5] = target: T2, PSMA (Homo sapiens, UniProt Q04609); experiment: Determination of IC50: PSMA affinity, competitive binding on LNCaP cells against ([125I]I-BA)KuE
T2 construct: endogenous in cells; host or cells: LNCaP cells
Method: Data are expressed as mean±SD (n=3, in 3 different experiments).
After removal of the culture medium, the cells were treated once with 500 μL of HBSS (Hank's balanced salt solution, Biochrom, Berlin, Germany, with addition of 1% bovine serum albumin (BSA)) and left 15 min on ice for equilibration in 200 μL HBSS (1% BSA). […] Quantification of bound and free radioligand was accomplished in a γ-counter.

[6] = Octanol-water partition coefficient (n-octanol/PBS pH 7.4); assay type: physicochemical; settings: for log P: octanol/PBS7.4, (n = 6)
Method: Approximately 1 MBq of the labeled tracer was dissolved in 1 mL of a 1:1 mixture (by volumes) of phosphate buffered saline (PBS, pH 7.4) and n-octanol in an Eppendorf tube. After vigorous mixing of the suspension for 3 minutes at room temperature, the vial was centrifuged at 15000 g for 3 minutes (Biofuge 15, Heraus Sepatech, Osterode, Germany) and 100 μL aliquots of both layers were measured in a gamma counter. The experiment was repeated at least six times.
Determianation of the IogP values was carried out in phosphate buffered saline (PBS, pH 7.4) and n-octanol (=logPoct/PBS).

[7] = Wängler et al. 2010; cited from earlier work
[8] = target: T1, human serum albumin; settings: reference substances for calibration of the HSA-column; cited from earlier work
[9] = LNCaP cells, [125I]IB-KuE c=0.2 nM, 1 h, 4° C., HBSS+1% BSA, single measurements, read-out: individual IC50 measurements
[10] = LNCaP cells, [125I]IB-KuE c=0.2 nM, 1 h, 4° C., mean of individual measurements, read-out: IC50 Mean

T1 sequence (P02768 25-609): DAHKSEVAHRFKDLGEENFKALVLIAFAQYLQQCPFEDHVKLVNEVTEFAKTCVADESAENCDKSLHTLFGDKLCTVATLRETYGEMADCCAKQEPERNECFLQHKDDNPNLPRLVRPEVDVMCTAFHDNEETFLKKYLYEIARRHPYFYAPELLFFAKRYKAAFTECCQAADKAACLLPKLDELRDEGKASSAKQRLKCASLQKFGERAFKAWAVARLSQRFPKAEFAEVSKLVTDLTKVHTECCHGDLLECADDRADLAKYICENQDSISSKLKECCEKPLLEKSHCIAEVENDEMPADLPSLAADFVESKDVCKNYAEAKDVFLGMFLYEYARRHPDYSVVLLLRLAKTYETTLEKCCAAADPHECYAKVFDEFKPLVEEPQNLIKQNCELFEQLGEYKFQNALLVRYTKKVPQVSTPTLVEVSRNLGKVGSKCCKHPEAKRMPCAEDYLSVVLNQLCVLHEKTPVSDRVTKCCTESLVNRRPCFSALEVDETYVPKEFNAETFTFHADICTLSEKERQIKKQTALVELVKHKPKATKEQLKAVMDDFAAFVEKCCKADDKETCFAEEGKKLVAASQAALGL
T2 sequence (Q04609 whole entry): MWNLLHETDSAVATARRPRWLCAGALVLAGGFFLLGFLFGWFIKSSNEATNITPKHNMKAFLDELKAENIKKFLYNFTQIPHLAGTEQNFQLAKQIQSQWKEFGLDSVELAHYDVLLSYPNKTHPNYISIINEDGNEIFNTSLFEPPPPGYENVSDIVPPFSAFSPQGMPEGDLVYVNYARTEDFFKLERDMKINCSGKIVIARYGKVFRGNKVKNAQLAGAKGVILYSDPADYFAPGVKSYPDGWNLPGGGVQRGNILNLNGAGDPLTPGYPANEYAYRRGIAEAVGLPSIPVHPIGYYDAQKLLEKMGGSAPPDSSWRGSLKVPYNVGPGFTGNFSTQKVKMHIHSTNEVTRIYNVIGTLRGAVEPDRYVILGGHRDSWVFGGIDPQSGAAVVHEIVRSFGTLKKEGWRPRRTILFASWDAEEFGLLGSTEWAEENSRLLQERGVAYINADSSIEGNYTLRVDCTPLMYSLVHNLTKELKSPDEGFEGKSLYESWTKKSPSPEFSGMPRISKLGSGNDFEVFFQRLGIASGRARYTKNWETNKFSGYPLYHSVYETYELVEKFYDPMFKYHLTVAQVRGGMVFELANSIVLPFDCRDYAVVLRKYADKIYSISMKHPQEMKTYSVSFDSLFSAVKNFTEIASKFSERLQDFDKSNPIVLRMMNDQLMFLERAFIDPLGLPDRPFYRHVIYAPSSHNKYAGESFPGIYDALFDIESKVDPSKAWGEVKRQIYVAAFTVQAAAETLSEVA

Compound: [^19F][^natGa]L-Dap-S-DOTAGA-rhPSMA7 [rhPSMA7.4]
Biodistribution adrenals [1]: 3.57 ± 2.38 % ID/g
Biodistribution blood [1]: 1.15 ± 0.30 % ID/g
Biodistribution bone [1]: 0.62 ± 0.30 % ID/g
Biodistribution heart [1]: 0.71 ± 0.26 % ID/g
Biodistribution intestine [1]: 0.37 ± 0.09 % ID/g
Biodistribution kidneys [1]: 153 ± 80.3 % ID/g
Biodistribution liver [1]: 0.69 ± 0.20 % ID/g
Biodistribution lung [1]: 1.59 ± 0.61 % ID/g
Biodistribution muscle [1]: 0.31 ± 0.08 % ID/g
Biodistribution pancreas [1]: 0.50 ± 0.30 % ID/g
Biodistribution spleen [1]: 18.4 ± 9.77 % ID/g
Biodistribution stomach [1]: 0.25 ± 0.06 % ID/g
Biodistribution tumor [1]: 18.9 ± 3.27 % ID/g
Biodistribution adrenals [2]: 0.03 ± 0.04 % ID/g
Biodistribution blood [2]: 0.82 ± 0.17 % ID/g
Biodistribution bone [2]: 1.0 ± 0.8 % ID/g
Biodistribution heart [2]: 0.37 ± 0.05 % ID/g
Biodistribution intestine [2]: 0.36 ± 0.08 % ID/g
Biodistribution kidneys [2]: 7.2 ± 2.4 % ID/g
Biodistribution liver [2]: 0.48 ± 0.14 % ID/g
Biodistribution lung [2]: 0.74 ± 0.14 % ID/g
Biodistribution muscle [2]: 0.20 ± 0.05 % ID/g
Biodistribution pancreas [2]: 0.18 ± 0.09 % ID/g
Biodistribution spleen [2]: 0.28 ± 0.15 % ID/g
Biodistribution stomach [2]: 0.20 ± 0.07 % ID/g
Biodistribution tumor [2]: 0.99 ± 0.19 % ID/g
individual internalization rates [3]: 209.6 % of [^125I]IB-KuE and 202.6 % of [^125I]IB-KuE and 209.8 % of [^125I]IB-KuE
internalization rate Mean [3]: 207.33±4.06 % of [^125I]IB-KuE and 207.33 % of [^125I]IB-KuE
HSA Binding [4]: 96.6%
IC50 [5, 9]: 3.4 nM and 3.56 nM and 2.79 nM and 4.57 nM and 3.78 nM
IC50 [5, 10]: 3.62 nM

logP ([6]; pH 7.4): -3.4
HSA Binding [4]: 14.3%
Compound: O=C(O)CC[C@H](NC(=O)N[C@@H](CCCCNC(=O)c1ccc(F)nc1)C(=O)O)C(=O)O [DCFPyL, reference compound]

Compound: SIFA-Asn(AcNH-β-Glc)-PEG-Tyr^3-octreotate
log P(ow) [7]: 0.96

Compound: PSMA-1007 [reference compound]
internalization of other selected PSMA inhibitors ([3]; identical assay, carried out in our lab (Robu et al. 2018)): 118 ± 4 % of [^125I]IB-KuE
log P [6]: −1.6
HSA Binding [4]: 97.8%
IC50 ([5]; identical binding assay, carried out in our lab (Robu et al. 2018), read-out: IC50 of other selected PSMA inhibitors): 4.2 ± 0.5 nM

Compound: CCCN(CCC)S(=O)(=O)c1ccc(C(=O)O)cc1 [Probenecid]
Lit. HSA % (literature value of human serum albumin binding) [8]: 95.00%

Compound: O=C(O)c1ccccc1 [Benzoic Acid]
Lit. HSA % (literature value of human serum albumin binding) [8]: 34.27%

Compound: Nc1ccccc1 [Aniline]
Lit. HSA % (literature value of human serum albumin binding) [8]: 14.06%
Log K HSA [4]: −0.79

Compound: CC(C)(C)[Si](F)(c1ccc(C(=O)NC[C@H](NC(=O)CC[C@H](C(=O)O)N2CCN(CC(=O)[O-])CCN(CC(=O)[O-])CCN(CC(=O)[O-])CC2)C(=O)N[C@H](CCCCNC(=O)CCC(=O)NCCC[C@@H](NC(=O)CC[C@H](NC(=O)N[C@@H](CCC(=O)O)C(=O)O)C(=O)O)C(=O)O)C(=O)O)cc1)C(C)(C)C.[Ga+3] [rhPSMA7.2, [^19F][^natGa]L-Dap-R-DOTAGA-rhPSMA7]
Biodistribution adrenals [1]: 1.3 ± 0.8 % ID/g
Biodistribution blood [1]: 0.56 ± 0.20 % ID/g
Biodistribution bone [1]: 0.31 ± 0.24 % ID/g
Biodistribution heart [1]: 0.32 ± 0.13 % ID/g
Biodistribution intestine [1]: 0.18 ± 0.07 % ID/g
Biodistribution kidneys [1]: 87.6 ± 28.8 % ID/g
Biodistribution liver [1]: 0.35 ± 0.08 % ID/g
Biodistribution lung [1]: 0.89 ± 0.38 % ID/g
Biodistribution muscle [1]: 0.13 ± 0.07 % ID/g
Biodistribution pancreas [1]: 0.21 ± 0.08 % ID/g
Biodistribution spleen [1]: 10.1 ± 6.3 % ID/g
Biodistribution stomach [1]: 0.19 ± 0.08 % ID/g
Biodistribution tumor [1]: 6.5 ± 2.3 % ID/g
Biodistribution adrenals [2]: 0.07 ± 0.10 % ID/g
Biodistribution blood [2]: 1.1 ± 0.31 % ID/g
Biodistribution bone [2]: 0.57 ± 0.39 % ID/g
Biodistribution heart [2]: 0.47 ± 0.09 % ID/g
Biodistribution intestine [2]: 0.33 ± 0.10 % ID/g
Biodistribution kidneys [2]: 10.9 ± 1.0 % ID/g
Biodistribution liver [2]: 0.46 ± 0.07 % ID/g
Biodistribution lung [2]: 1.1 ± 0.32 % ID/g
Biodistribution muscle [2]: 0.09 ± 0.03 % ID/g
Biodistribution pancreas [2]: 0.12 ± 0.05 % ID/g
Biodistribution spleen [2]: 0.26 ± 0.07 % ID/g
Biodistribution stomach [2]: 0.21 ± 0.06 % ID/g
Biodistribution tumor [2]: 1.0 ± 0.13 % ID/g
individual internalization rates [3]: 192.3 % of [^125I]IB-KuE and 188.7 % of [^125I]IB-KuE and 182.7 % of [^125I]IB-KuE and 169.5 % of [^125I]IB-KuE and 205.3 % of [^125I]IB-KuE and 212.6 % of [^125I]IB-KuE
internalization rate Mean [3]: 191.83 % of [^125I]IB-KuE
log P [6]: −3.13 ± 0.22
log P Mean ([6]; octanol/PBS7.4, mean of individual measurements): −3.13
individual log P measurements ([6]; octanol/PBS7.4, single measurements): −3.03 and −2.96 and −2.94 and −2.89 and −3.02 and −3.06 and −2.99 and −3.14 and −3.40 and −3.50 and −3.45 and −3.53 and −3.48 and −3.00 and −3.01
HSA Binding [4]: 97.8%
IC50 [5, 9]: 2.64 nM and 2.76 nM and 3.94 nM and 5.8 nM and 4.31 nM and 4.32 nM and 3.17 nM and 2.97 nM and 3.36 nM
IC50 [5, 10]: 3.7 nM

Log K HSA [4]: 1.69
Compound: COc1ccc(Cl)cc1C(=O)NCCc1ccc(S(=O)(=O)NC(=O)NC2CCCCC2)cc1 [Glibenclamide]
Lit. HSA % (literature value of human serum albumin binding) [8]: 99.00%

Compound: SIFA-Asn(AcNH-β-Glc)-Tyr^3-octreotate
log P(ow) [7]: 1.23

Compound: Oc1ccccc1 [Phenol]
Lit. HSA % (literature value of human serum albumin binding) [8]: 20.69%
Log K HSA [4]: −0.59
